Source: PubChem BioAssay AID1996
Converted amounts (≈) assume the structure as drawn.

Settings: buffer; pH 7.4; 200.0 µM

SMILES | solubility kinetic [µg/mL]
CN1C[C@H](C(=O)N[C@]2(C)O[C@@]3(O)[C@@H]4CCCN4C(=O)[C@H](Cc4ccccc4)N3C2=O)CC2c3cccc4[nH]cc(c34)C[C@H]21.CS(=O)(=O)O (some centres undefined) | 62.9
COc1cc(CC(=O)Nc2nc(C)cs2)cc(OC)c1OC | 42.9 (≈ 133 µM)
O=C(Cc1ccccc1)N1CCN=C1SCc1cccc([N+](=O)[O-])c1 | 9.7 (≈ 27.3 µM)
COc1ccc(S(=O)(=O)NCc2cccnc2)cc1Br | 35.5 (≈ 99.4 µM)
O=C(NCc1ccco1)c1ccc(-c2ccc(Cl)cc2)o1 | 1.2 (≈ 3.98 µM)
COc1ccc(/C=N/NC(=O)c2ccccc2O)cc1CN1CCOCC1 | > 55.4
CC1=Nc2ccccc2/C1=C/c1c(O)n(C)c(=O)[nH]c1=O | > 42.5
COCCCNC(=O)c1ccc(-c2csc(C)n2)cc1 | > 43.6
CC(=O)/C=C/c1ccccc1Oc1c(F)c(F)nc(F)c1F | 17.8 (≈ 57.2 µM)
Nc1nc(NCC(=O)O)nc(N2CCCCCC2)c1[N+](=O)[O-] | 44.1 (≈ 142 µM)
Cc1cc(NS(=O)(=O)c2c(C)c(C)cc(C)c2C)no1 | > 44.2
N#CCN1CCC2(O)CCCCC2C1c1ccc2c(c1)OCO2 (centres undefined) | 42 (≈ 134 µM)
Oc1c(C=Nc2cccc3nsnc23)ccc2ccccc12 | 19.3 (≈ 63.2 µM)
NC(=S)Nc1ccccc1Br | > 34.7
CC(C)C[C@H](N)c1nnc(SCc2ccc(Cl)cc2)o1.Cl | > 52.2
Cc1ccccc1NC(=O)Cc1cccs1 | > 34.7
CC(=O)c1cc2c(cc1NC(=O)Cc1c(C)noc1C)OCO2 | > 47.4
COC(=O)C1=C(NC(=O)c2ccccc2[N+](=O)[O-])CCS1 | 8.4 (≈ 27.2 µM)
CC(=O)C1=C(O)C(=O)N(c2ccc(O)cc2)C1c1ccc([N+](=O)[O-])cc1 (centres undefined) | > 53.1
Cc1cc(C(=O)NC2CCCCCC2)c2ccccc2n1 | 24.2 (≈ 85.7 µM)

SMILES | solubility kinetic [µg/mL]
O=C(CCN1C(=O)C2C3C=CC(C3)C2C1=O)N1CCCCC1 (centres undefined) | > 45.4
CC(C)(C)NC(=O)C1CC(=O)N(CCc2ccc(F)cc2)C1 (centres undefined) | > 46
COC(=O)c1ccc(S(=O)(=O)N2CCC(C(N)=O)CC2)n1C | > 49.4
Cc1cccc(C2C3=C(CCCC3=O)N=C3c4ccccc4C(=O)C32)c1 (centres undefined) | 2.3 (≈ 6.74 µM)
COc1ccc(NC(=O)C2CCCN(c3nc(C)cc(C)n3)C2)cc1 (centres undefined) | 1.4 (≈ 4.11 µM)
CCSc1nnc(NC(=O)c2nc3nc(C)cc(C)n3n2)s1 | > 50.3
CCCCNC(=O)c1ccc(CS(=O)(=O)c2ccc(C)cc2)o1 | > 50.3
COc1ccccc1NC(=O)c1cc(OC)c(OC)cc1[N+](=O)[O-] | > 49.8
O=C(NCCCn1ccnc1)C(=O)NC1CCCCC1 | > 41.8
CC(Oc1ccc([N+](=O)[O-])cc1)C(=O)NCC1CCCO1 (centres undefined) | > 44.1
CCC(OC(=O)c1ccco1)C(=O)NCc1ccc2c(c1)OCO2 (centres undefined) | 46.5 (≈ 140 µM)
NC(=O)c1ccccc1 | > 18.2
O=S(=O)(c1cccs1)N1CCC(CO)(Cc2cccc(F)c2)CC1 | 53.8 (≈ 146 µM)
COc1ccc(N2CCN(CC(=O)NCc3ccccc3)CC2)cc1 | > 50.9
Cc1ccc(C)c(NS(=O)(=O)c2ccccc2C)c1 | 38.8 (≈ 141 µM)
Cc1ccc(-n2c(C)nnc2SC(C)C(=O)N2CCCC2)cc1 (centres undefined) | > 49.6
CCOC(=O)C1=C(CC)Nc2ccccc2N/C1=N\S(=O)(=O)c1cccc(C(C)=O)c1 | > 66.2
CCN(CC)c1ccc(NC(=O)Nc2cccc3ccccc23)cc1 | 0.6 (≈ 1.8 µM)
Cc1cc(=O)[nH]c(SCC(=O)Nc2ccc3c(c2)OCCO3)n1 | > 50
O=C(COc1ccccc1[N+](=O)[O-])Nc1ccc2oc(=O)ccc2c1 | 0.5 (≈ 1.47 µM)

SMILES | solubility kinetic [µg/mL]
C/C(=N\OCc1cccc(C(=O)O)c1)c1ccc(Cl)cc1 | > 45.6
O=C(Nc1ccc(N2CCCCC2)c(S(=O)(=O)Nc2ccccc2Cl)c1)c1cccnc1 | 1.5 (≈ 3.18 µM)
Cc1ccc(N(C(C)C(=O)N2CCCC2)S(C)(=O)=O)cc1 (centres undefined) | > 46.6
Cc1onc(-c2ccccc2)c1C(=O)Nc1nncs1 | > 42.9
CCn1c(=O)c(-c2nc3ccccc3[nH]2)c(O)c2ccccc21 | < 0.2
CCOC(=O)C1(Cc2ccccc2)CCCN(Cc2ccncc2)C1 (centres undefined) | 31.3 (≈ 92.5 µM)
Cc1ccc(OCC(=O)N2CCCCCCC2)cc1 | > 39.2
CCOC(=O)C1=C(CN2CCCCCC2)NC(=O)NC1c1ccc2c(c1)OCO2 (centres undefined) | 53.5 (≈ 133 µM)
Cc1ccc(OCCC(=O)Nc2ccc(C)c(F)c2)cc1 | 1.4 (≈ 4.87 µM)
CC(C(=O)N(C)C1CCCCC1)N1CCC(C(N)=O)CC1 (centres undefined) | 43.1 (≈ 146 µM)
O=C(Nc1ccc2cccnc2c1)c1ccc(Br)cc1 | 0.4 (≈ 1.22 µM)
O=C(CN1C(=O)NC2(CCCC2)C1=O)Nc1cc(S(=O)(=O)N2CCCCC2)ccc1Cl | 65.8 (≈ 140 µM)
CC1CCC(NC(=O)C(=O)Nc2ccc3c(c2)OCO3)CC1 (centres undefined) | 0.5 (≈ 1.64 µM)
Cc1cc(Cl)nc(SCC(=O)c2ccccc2)n1 | 29.3 (≈ 105 µM)
Cc1ccc(C(=O)NCc2ccc3c(c2)OCO3)c(C)c1 | 11.1 (≈ 39.2 µM)
CCOC(=O)c1sc(=NC(=O)CCSc2ccccc2)n(C)c1C | < 0.4
CCC(C)NC(=O)CN1C(=O)c2cccc3cccc1c23 (centres undefined) | 6.3 (≈ 22.3 µM)
O=C(C#Cc1ccccc1)Nc1cccc(F)c1 | 8.7 (≈ 36.4 µM)
COP(=O)(OC)c1nc(-c2ccc(C)cc2)oc1N1CCCCC1 | > 52.6
